Assay results taken from patent publication US20230059705A1, “NITRIFICATION INHIBITOR FUNGICIDE COMPOSITION AND USE THEREOF” (Verdesian Life Sciences U.S., LLC, priority 2019, published 2023).
Read-outs that look alike come from different tables or passages of the source.

What was measured:
N. europaea = experiment: Oxygen (O2) uptake of N. europaea cell suspension; assay type: cell-based, Nitrosomonas europaea; conditions: FIG. 12, cells at 0.5 mg/mL total protein, thiram 4 μM, nitrapyrin and formulations 100 μM
Procedure: 1.5 L of cell culture suspension containing N. europaea bacteria (ATCC #19718) was resuspended into a phosphate buffer (0.1M NaPB, 2 mM Mg SO4, pH of 7.5). The amount of N. europaea protein was quantified using a Biuret assay.
To a buffer solution containing 10 μM of (NH4)2SO4 in a total reaction volume of 5 mL was added 0.25 mg/mL of the N. europaea containing cell suspension. The N. europaea protein content varied (e.g., 0.25 mg/mL, 0.3 mg/mL or 0.5 mg/mL total protein). Measurements of O2 present in the reaction medium were taken immediately after the addition of the cell suspension to the buffer solution for and were taken continuously over a certain time period.
Test compounds and formulations included 4 μM thiram, 100 μM nitrapyrin, 100 μM of formulation 2, 100 μM of formulation 3, 100 μM of formulation 4, 100 μM of formulation 2 plus 4 μM thiram, 100 μM of formulation 3 plus 4 μM thiram; and 100 μM of formulation 4 plus 4 μM, and thiram, untreated N. europaea assay served as the control.
Results are typically plotted as a function of measured oxygen (i.e., the amount of dissolved oxygen) in solution over time to generate a inhibition curve (FIG. 11). Measurements of the area under the inhibition curve can provide a bar chart showing the oxygen consumption of N. europaea of the entire testing period.

Nitrosomonas europaea = experiment: Inhibition of nitrite generation by N. europaea cell suspension (Griess reagent, absorbance 548 nm); assay type: cell-based; conditions: thiram 4 μM, relative to zero inhibitor control, read-out: % control (percent control of nitrification inhibition), observed
Procedure: 1.5 L of cell culture suspension containing Nitrosomonas europaea (N. europaea) bacteria (ATCC #19718) was resuspended into a phosphate buffer (0.1M NaPB, 2 mM Mg SO4, pH of 7.5). The amount of N. europaea protein was quantified using a Biuret assay. A sample of the cell culture suspension containing about 0.3 mg/mL, 0.25 mg/mL, or 0.5 mg/mL of N. europaea protein was incubated with 50 μL of (NH4)2SO4 in a total reaction volume of 5 mL. The test measured inhibition for treatment rates of 4 μM thiram, 100 μM nitrapyrin, 100 μM of formulation 2 (form.2), formulation 3 (form.3), formulation 4 (form.4) and 100 μM of formulation 2 (form.2) plus 4 μM thiram, 100 μM of formulation 3 (form.3) plus 4 μM thiram and 100 μM of formulation 4 (form.4) plus 4 μM thiram; an untreated N. europaea assay served as the control. At time points 0, 30, and 60 minutes post addition of (NH4)2SO4, an aliquot of 500 μL was removed from the reaction mixture and was incubated for 30 minutes with 500 μL of Griess Reagent in the dark followed by measuring the absorbance at 548 nm for the presence or absence of nitrite. The percent of nitrification inhibition was calculated based on the relative percentage of nitrite measurement against the zero inhibitor control measurement (see FIGS. 2-4 showing the percent control of nitrification inhibition). […]

Row | SMILES | inhibition of oxygen consumption by N. europaea (N. europaea) | inhibition at 4 µM (Nitrosomonas europaea; 0.5 h, 30 min after (NH4)2SO4, formulation 100 μM) [%] | inhibition at 4 µM (Nitrosomonas europaea; 1 h, 60 min after (NH4)2SO4, formulation 100 μM) [%] | inhibition at 4 µM (N. europaea; Nitrosomonas europaea, read-out: inhibition of oxygen consumption by N. europaea) [%]
1 | Clc1cccc(C(Cl)(Cl)Cl)n1 [nitrapyrin, 2-chloro-6-(trichloromethyl)-pyridine] | did not inhibit | – | – | –
2 | CN(C)C(=S)SSC(=S)N(C)C [Thiram] | – | 77.7 ± 1 | 77.3 ± 1.2 | 20
